# What was measured:
# Transthyretin (TTR) V30M = Transthyretin (TTR) V30M (Homo sapiens, UniProt P02766, V50M); test: acid-induced (pH […] h) aggregation turbidity; urea denaturation by Trp fluorescence; assay type: biochemical
# [1] = biological target: T1, Transthyretin (TTR, prealbumin), wild type (Homo sapiens, UniProt P02766); test: as above; assay type: biochemical
# T1 construct: homotetramer; prealbumin from human plasma
SMILES,EC50 (Transthyretin (TTR) V30M) [µM],EC50 [1] [µM]
C/C(=C/CC[C@@]1(C)C2C[C@@H]3[C@H](C2)C31C)CO [α-santalol],44.3 ± 3.5,36.7 ± 1.2
C=C1[C@@H]2CC[C@@H](C2)[C@@]1(C)CC/C=C(/C)CO [β-santalol],34.5 ± 2.8,31.1 ± 2.4
